Patent publication US20140155384A1, “COMPOUNDS AND METHODS OF TREATING DIABETES” (Medivation Technologies, Inc., priority 2011, published 2014)

Key:
[1] = molecular target: T1, rat adrenergic α1B receptor (Rattus norvegicus, UniProt P15823); test: Radioligand binding, adrenergic α1B receptor ([3H]Prazosin); conditions: 0.1 μM compound, Wistar rat liver, read-out: Percentage inhibition of ligand binding, Adrenergic α1B
T1 construct: rat adrenergic α1B receptor obtained from Wistar Rat liver; from tissue; host or cells: Wistar rat liver
T1 sequence (P15823 1-515): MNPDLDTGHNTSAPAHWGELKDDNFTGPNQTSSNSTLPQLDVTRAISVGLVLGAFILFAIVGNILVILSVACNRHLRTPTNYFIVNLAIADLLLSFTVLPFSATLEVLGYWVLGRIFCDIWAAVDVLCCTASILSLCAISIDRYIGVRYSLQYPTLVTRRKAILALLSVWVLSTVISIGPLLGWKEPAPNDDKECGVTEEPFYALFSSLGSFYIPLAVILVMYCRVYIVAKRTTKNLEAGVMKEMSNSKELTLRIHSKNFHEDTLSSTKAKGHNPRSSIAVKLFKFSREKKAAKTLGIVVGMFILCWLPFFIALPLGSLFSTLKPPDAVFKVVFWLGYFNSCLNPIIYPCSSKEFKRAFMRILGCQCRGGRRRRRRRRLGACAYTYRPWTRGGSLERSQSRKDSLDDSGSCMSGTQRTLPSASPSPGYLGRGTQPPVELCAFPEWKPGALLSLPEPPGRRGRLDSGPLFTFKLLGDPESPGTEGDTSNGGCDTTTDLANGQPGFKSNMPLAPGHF
In short: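 Wistar rat liver α1B receptor preparation incubated with 0.25 nM [3H]prazosin and compound for 60 min at 25° C in 50 mM Tris-HCl pH 7.4, 0.5 mM EDTA; nonspecific binding defined with 10 μM phentolamine.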

[2] = molecular target: T2, human recombinant adrenergic α1D receptor (Homo sapiens, UniProt P25100); test: Radioligand binding, adrenergic α1D receptor ([3H]Prazosin); conditions: 0.1 μM compound; HEK-293 cells; 0.6 nM [3H]Prazosin; read-out: Percentage inhibition of ligand binding, Adrenergic α1D
T2 construct: expressed in transfected cells; host or cells: HEK-293
T2 sequence (P25100 1-572): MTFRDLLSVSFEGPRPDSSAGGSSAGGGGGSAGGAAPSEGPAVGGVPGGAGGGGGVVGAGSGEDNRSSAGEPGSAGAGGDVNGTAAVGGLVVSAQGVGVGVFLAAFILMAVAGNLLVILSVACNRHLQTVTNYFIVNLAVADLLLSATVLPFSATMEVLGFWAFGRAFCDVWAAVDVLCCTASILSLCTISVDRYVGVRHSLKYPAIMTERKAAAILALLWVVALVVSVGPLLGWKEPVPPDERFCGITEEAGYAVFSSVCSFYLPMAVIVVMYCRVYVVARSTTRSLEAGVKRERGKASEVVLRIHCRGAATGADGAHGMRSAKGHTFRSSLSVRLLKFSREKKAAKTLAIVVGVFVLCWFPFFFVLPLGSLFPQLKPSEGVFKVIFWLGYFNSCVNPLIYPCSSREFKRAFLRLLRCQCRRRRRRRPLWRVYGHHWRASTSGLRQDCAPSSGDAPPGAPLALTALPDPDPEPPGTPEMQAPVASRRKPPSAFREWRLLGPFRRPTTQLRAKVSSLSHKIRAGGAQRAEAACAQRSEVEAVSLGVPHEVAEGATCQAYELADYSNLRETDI
Experimental: Compounds were incubated with 0.6 nM [3H]Prazosin for 60 min at 25° C. Non-specific binding was estimated in the presence of 10 μM phentolamine. Receptor proteins were filtered and washed, the filters were then counted to determine [3H]Prazosin specifically bound. Compounds were screened at 1 μM or lower, using 1% DMSO as vehicle. Biochemical assay results are presented as the percent inhibition of specific binding in Table 2.

[3] = molecular target: T3, human recombinant adrenergic α2A receptor (Homo sapiens, UniProt P08913); test: Radioligand binding, adrenergic α2A receptor ([3H]MK-912); conditions: 0.1 μM compound; Sf9 cells; 1 nM [3H]MK-912; read-out: Percentage inhibition of ligand binding, Adrenergic α2A
T3 construct: expressed in transfected cells; host or cells: insect Sf9 cells
T3 sequence (P08913 1-465): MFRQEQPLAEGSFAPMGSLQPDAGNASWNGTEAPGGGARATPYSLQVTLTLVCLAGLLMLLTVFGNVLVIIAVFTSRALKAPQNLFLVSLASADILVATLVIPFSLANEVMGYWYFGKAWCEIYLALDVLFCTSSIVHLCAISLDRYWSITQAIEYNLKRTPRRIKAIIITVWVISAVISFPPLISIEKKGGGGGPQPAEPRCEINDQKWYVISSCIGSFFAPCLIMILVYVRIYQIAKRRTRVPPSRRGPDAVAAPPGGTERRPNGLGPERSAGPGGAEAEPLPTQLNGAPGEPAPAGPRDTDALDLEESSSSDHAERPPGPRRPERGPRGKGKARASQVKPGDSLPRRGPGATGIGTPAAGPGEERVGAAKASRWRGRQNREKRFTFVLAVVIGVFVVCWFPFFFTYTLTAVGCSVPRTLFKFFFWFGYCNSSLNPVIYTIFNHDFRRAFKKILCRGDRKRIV
In short: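 Percent inhibition of specific [3H]MK-912 (1 nM) binding measured by filtration counting, compounds tested at ≤1 μM in 1% DMSO. Receptor: human α2A from Sf9 cells; incubation 60 min, 25 °C, pH 7.4; 10 μM WB-4101 defined nonspecific binding.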

[4] = molecular target: T4, human recombinant adrenergic α2B receptor (Homo sapiens, UniProt P18089); test: Radioligand binding, adrenergic α2B receptor ([3H]Rauwolscine); conditions: 0.1 μM compound, CHO-K1 cells, read-out: Percentage inhibition of ligand binding, Adrenergic α2B
T4 construct: expressed in transfected cells; host or cells: CHO-K1
T4 sequence (P18089 1-450): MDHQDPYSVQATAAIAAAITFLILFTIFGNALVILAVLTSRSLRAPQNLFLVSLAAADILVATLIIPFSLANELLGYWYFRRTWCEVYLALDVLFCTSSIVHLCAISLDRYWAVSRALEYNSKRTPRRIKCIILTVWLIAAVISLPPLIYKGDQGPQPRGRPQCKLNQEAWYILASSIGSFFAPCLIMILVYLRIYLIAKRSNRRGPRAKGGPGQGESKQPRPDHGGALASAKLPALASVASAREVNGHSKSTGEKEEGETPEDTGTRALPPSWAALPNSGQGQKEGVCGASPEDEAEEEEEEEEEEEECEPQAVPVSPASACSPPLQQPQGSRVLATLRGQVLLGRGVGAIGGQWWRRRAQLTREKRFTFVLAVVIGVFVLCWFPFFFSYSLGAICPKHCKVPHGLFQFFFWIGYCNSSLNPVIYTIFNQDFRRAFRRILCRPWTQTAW
In short: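 Percent inhibition of specific [3H]Rauwolscine (2.5 nM) binding, compounds at ≤1 μM, 1% DMSO vehicle, 10 μM prazosin defining nonspecific. Receptor: human α2B expressed in CHO-K1 cells, 60 min incubation at 25 °C in Tris-HCl pH 7.4 buffer (MgCl2, EDTA, BSA); filtered, washed, counted.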

SMILES	inhibition at 0.1 µM [1]	inhibition at 0.1 µM [2]	inhibition at 0.1 µM [3]	inhibition at 0.1 µM [4]
Cc1ccc2c(c1)c1c(n2-c2ccc(-c3cncc4ccccc34)cn2)CCN(C)C1 [Compound No. 135, 5-(5-(isoquinolin-4-yl)pyridin-2-yl)-2,8-dimethyl-2,3,4,5-tetrahydro-1H-pyrido[4,3-b]indole]	59%	64%	56%	99%
Cc1ccc2c(c1)c1c(n2-c2ccc(-c3ccc4c(ccn4C)c3)cn2)CCN(C)C1 [Compound No. 136, 2,8-dimethyl-5-(5-(1-methyl-1H-indol-5-yl)pyridin-2-yl)-2,3,4,5-tetrahydro-1H-pyrido[4,3-b]indole]	70%	59%	59%	105%
CC(=O)Nc1ccc(-c2ccc(-n3c4c(c5cc(C)ccc53)CN(C)CC4)nc2)cn1 [Compound No. 139, N-(6′-(2,8-dimethyl-3,4-dihydro-1H-pyrido[4,3-b]indol-5(2H)-yl)-3,3′-bipyridin-6-yl)acetamide]	55%	45%	18%	59%
Cc1ccc2c(c1)c1c(n2-c2ccc(-c3ccc(F)cc3)cn2)CCN(C)C1 [Compound No. 140, 5-(5-(4-fluorophenyl)pyridin-2-yl)-2,8-dimethyl-2,3,4,5-tetrahydro-1H-pyrido[4,3-b]indole]	69%	56%	70%	96%
Cc1ccc2c(c1)c1c(n2-c2ccc(-c3cccc4ccccc34)cn2)CCN(C)C1 [Compound No. 141, 2,8-dimethyl-5-(5-(naphthalen-1-yl)pyridin-2-yl)-2,3,4,5-tetrahydro-1H-pyrido[4,3-b]indole]	62%	50%	69%	82%
Cc1ccc2c(c1)c1c(n2-c2ccc(-c3ccc(F)nc3)cn2)CCN(C)C1 [Compound No. 142, 5-(6′-fluoro-3,3′-bipyridin-6-yl)-2,8-dimethyl-2,3,4,5-tetrahydro-1H-pyrido[4,3-b]indole]	83%	78%	59%	91%
Cc1ccc2c(c1)c1c(n2-c2ccc(-c3ccc(S(N)(=O)=O)cc3)cn2)CCN(C)C1 [Compound No. 145, 4-(6-(2,8-dimethyl-3,4-dihydro-1H-pyrido[4,3-b]indol-5(2H)-yl)pyridin-3-yl)benzenesulfonamide]	86%	73%	71%	83%
Cc1ccc2c(c1)c1c(n2-c2ccc(-c3cccc4[nH]ncc34)cn2)CCN(C)C1 [Compound No. 147, 5-(5-(1H-indazol-4-yl)pyridin-2-yl)-2,8-dimethyl-2,3,4,5-tetrahydro-1H-pyrido[4,3-b]indole]	72%	61%	46%	43%
Cc1cc(C)c2c(c1)c1c(n2-c2cscc2-c2ccncc2)CCN(C)C1 [Compound No. 149]	16%	8%	-6%	14%

Now from value to molecule:

inhibition at 0.1 µM [1]	inhibition at 0.1 µM [2]	inhibition at 0.1 µM [3]	inhibition at 0.1 µM [4]	SMILES
43%	30%	38%	73%	Cc1ccc2c(c1)c1c(n2-c2ccc(-c3cnn(C)c3)cn2)CCN(C)C1 [Compound No. 134, 2,8-dimethyl-5-(5-(1-methyl-1H-pyrazol-4-yl)pyridin-2-yl)-2,3,4,5-tetrahydro-1H-pyrido[4,3-b]indole]
72%	74%	57%	92%	Cc1ccc2c(c1)c1c(n2-c2ccc(-c3c(C)noc3C)cn2)CCN(C)C1 [Compound No. 137, 4-(6-(2,8-dimethyl-3,4-dihydro-1H-pyrido[4,3-b]indol-5(2H)-yl)pyridin-3-yl)-3,5-dimethylisoxazole]
73%	73%	40%	82%	Cc1ccc2c(c1)c1c(n2-c2ccc(-c3cnc(N(C)C)nc3)cn2)CCN(C)C1 [Compound No. 138, 5-(6-(2,8-dimethyl-3,4-dihydro-1H-pyrido[4,3-b]indol-5(2H)-yl)pyridin-3-yl)-N,N-dimethylpyrimidin-2-amine]
68%	52%	72%	95%	Cc1csc(-c2ccc(-n3c4c(c5cc(C)ccc53)CN(C)CC4)nc2)c1 [Compound No. 144, 2,8-dimethyl-5-(5-(4-methylthiophen-2-yl)pyridin-2-yl)-2,3,4,5-tetrahydro-1H-pyrido[4,3-b]indole]
70%	79%	26%	54%	Cc1ccc2c(c1)c1c(n2-c2ccc(-c3ccnn3C)cn2)CCN(C)C1 [Compound No. 146, 2,8-dimethyl-5-(5-(1-methyl-1H-pyrazol-5-yl)pyridin-2-yl)-2,3,4,5-tetrahydro-1H-pyrido[4,3-b]indole]
63%	68%	50%	90%	Cc1ccc2c(c1)c1c(n2-c2ccc(-c3sccc3C)cn2)CCN(C)C1 [Compound No. 148, 2,8-dimethyl-5-(5-(3-methylthiophen-2-yl)pyridin-2-yl)-2,3,4,5-tetrahydro-1H-pyrido[4,3-b]indole]
